Key:
[1] = test system: P. aeruginosa strain (ATCC 9027); experiment: Protocol 1 kill curve / MIC, 1 hour at 37° C.; type: cell-based, Pseudomonas aeruginosa; conditions: 6.25 μg/ml, 10 mM sodium phosphate buffer
Description: (§1) This protocol is used to develop dose-response (kill) curves to calculate the minimal inhibitory concentration of an indolicidin (e.g., L-indolicidin (L-IND)) when formulated in a commercially available phosphate buffered saline (PBS) solution. In addition, for comparative purposes, kill curves are established for the following three commonly available commercial lens-care products containing different preservatives:
(§2) The stock solutions are diluted in a 2-fold fashion by transferring 1 ml of each stock solution to 1 ml of appropriate diluent in sterile glass tubes (100×13 mm). Twelve additional 2-fold dilutions are made by transferring 1 ml aliquots of each dilution to 1 ml diluent. The diluent for all commercial lens-care products is PBS. […]
(§3) Viable counts of the bacteria are performed by 10-fold serial dilutions in sterile PBS and by plating 0.1 ml aliquots on nutrient agar plates. […] The plates are incubated overnight at 37° C. and colonies are counted and recorded. […]
(§4) Survival is expressed as number of surviving bacteria (CFU/ml) for each dilution of the test article and control solutions. The lowest dose of the test article that results in complete kill of the test organism, compared to the non-exposed control, is determined to be the MIC value. […]

[2] = Toxicity study, topical ocular administration
Description: (§5) The objective of this study was to determine if the treatment regimen proposed for the efficacy study of the defensin formulations caused target organ toxicity. This study is not intended to support application for research or marketing permits for products regulated by governmental agencies. The purpose of this study is to provide range-finding data is therefore, not within the scope of Good Laboratory Practice Guidelines.
Rabbits were treated four times on Day 1 at ˜1 hour intervals, and twice daily at ˜12 hour intervals administered on Days 2 through 4.
(§6) Dosing volumes were 0.1 mL/mouse (intravaginal), 0.1 mL/mouse (intraperitoneal), and 20 μL/rabbit. The study lasted 5 days, with day 1 the first day of dose administration.
(§7) The dose formulations were supplied in pyrogen-free saline.

[3] = test system: Escherichia coli (ATCC 8739); experiment: Protocol 1 kill curve / MIC, 1 hour at 37° C.; type: cell-based; conditions: 6.25 μg/ml, 10 mM sodium phosphate buffer
Description: as §1, §2, §3, §4

[4] = Toxicity study, intravaginal administration
Description: as §5
Mice were treated by intravaginal administration twice daily at ˜12 hour intervals administered on Days 1 through 4. Mice were treated intraperitoneally three times on Day 1 at ˜4 hour intervals, and twice daily at ˜12 hour intervals administered on days 2 through 4.
as §6, §7

Escherichia coli ML35 = experiment: Dose response and kinetics of antimicrobial activity in 10 mM sodium phosphate buffer; type: cell-based
Description: The time course and dose-dependence of the antimicrobial activity of an antimicrobial peptide can be determined by incubating a microorganism with the antimicrobial peptide and determining the viability after various times of incubation or after treatment with various concentrations of the antimicrobial peptide.
Exemplary assays using indolicidin and indolicidin analogs were performed in 10 mM sodium phosphate buffer, pH 7.4, at 37° C., as described by Selsted et al. (1985) Infect. Immun. 45:150-154, which is incorporated herein by reference.
The dose response of a gram negative bacterial strain, Escherichia coli ML35, and a gram positive bacterial strain, Staphylococcus aureus 502A, to indolicidin was determined by incubating 2×10^6 colony forming units (CFU) of log phase bacteria with 0-25 μg/mL of indolicidin for two hours. Following incubation, the cultures were serially diluted and plated on nutrient agar. Viability of both gram negative and gram positive bacteria was reduced by at least four orders of magnitude in incubations containing 10 μg/mL of indolicidin. E. coli was more susceptible than S. aureus, as >95% of the input cells were killed after 2 hr incubation with 2.5 μg/mL indolicidin. […]
The kinetics of indolicidin antimicrobial activity was evaluated by incubating 2×10^6 E. coli with […] of indolicidin for 1 to 40 min. […]

[5] = 10, 100 or 1000 μg/mL, BPN-A-amide 30, 300 or 3000 μg/mL

In the case of `CC[C@H](C)[C@H](N)C(=O)N[C@@H](CC(C)C)C(=O)N1CCC[C@H]1C(=O)N[C@@H](Cc1c[nH]c2ccccc12)C(=O)N[C@@H](CCCCN)C(=O)N[C@@H](Cc1c[nH]c2ccccc12)C(=O)N1CCC[C@H]1C(=O)N[C@@H](Cc1c[nH]c2ccccc12)C(=O)N[C@@H](Cc1c[nH]c2ccccc12)C(=O)N1CCC[C@H]1C(=O)N[C@@H](Cc1c[nH]c2ccccc12)C(=O)N[C@@H](CCCNC(=N)N)C(=O)N[C@@H](CCCNC(=N)N)C(N)=O` [L-indolicidin, H2N-ILPWKWPWWPWRR-CONH2], the survival [1] is reported as 59%, the “deaths or clinical signs of toxicity” value [2, 5] is reported as “No deaths or biologically significant clinical signs of toxicity” and the “toxic changes in rabbit eyes (histology)” value ([2]; 20 μL/rabbit at 10, 100 or 1000 μg/mL, BPN-A-amide at 30, 300 or 3000 μ/mL) is reported as “No toxic changes”. For the same molecule, the survival [3] was 15%, the “Tissues from the reproductive tract (histology)” value ([4]; 0.1 mL/mouse at 10, 100 or 1000 μg/mL, BPN-A-amide at 30, 300 or 300 μ/mL) was “within normal limits” and the “deaths or clinical signs of toxicity” value [4, 5] was “No deaths or biologically significant clinical signs of toxicity”. The Viability reduction (Escherichia coli ML35; 10 μg/mL indolicidin, 2 hours, 10 mM sodium phosphate buffer pH 7.4, 37° C., 2×10^6 CFU) was “at least four” and the culture viability (Escherichia coli ML35; 25 μ/mL indolicidin, after 20 min) was “essentially was sterilized”.

— US6482799B1, “Self-preserving multipurpose ophthalmic solutions incorporating a polypeptide antimicrobial” (The Regents of the University of California, priority 1999, dated 2002)
